Experimental data reported in patent publication US20140235447A1, “METHODS FOR […] YIELD” (Syngenta Crop Protection LLC, priority 2013, published 2014).
Values joined by “and” are separate entries in the source; they are usually repeats but may differ in a detail not shown here. Equal entries are not always repeated.

Legend:
[1] = system: Tropical corn; test: Treatment of tropical corn with single or multiple applications of 1-MCP, crop yield; type: in vivo; details: for Yield increase in kg/ha, Single app. @ V3-5: single application at stage of 3-5 fully collared leaves; for Yield increase in kg/ha, Single app @ V10: single application at stage of 10 leaves; for Yield increase in kg/ha, Double app. @ V3&10: two applications, 3-5 fully collared leaves and 10 leaf stage
Procedure: Tropical corn is treated with a combination of extruded granules of dextrose containing 0.1% 1-MCP and coated sand granules also containing 0.1% 1-MCP. The plants are treated with (1) a single application at the stage of 3-5 fully collared leaves; (2) a single application at the stage of 10 leaves; or (3) two applications with a first application at stage of 3-5 fully collared leaves and a second application at the 10 leaf stage. Dosages of 5 g/hectare, 10 g/hectare, and 25 g/hectare 1-MCP are applied for each of the three different treatment regimes.
The results are presented in Table 1 and FIG. 1 with yield being measured in kg/hectare. For each dosage amount the left bar designates treatment 1 (a single application at the stage of 3-5 fully collared leaves), the middle bar designates treatment 2 (a single application at the stage of 10 leaves), and the right hand bar designates treatment 3 (application at both the stage of 3-5 fully collared leaves and again at the 10 leaf stage). For each of the 5 g/hectare treatment, the 10 g/hectare treatment, and the 25 g/hectare treatment, the yield is increased by more than 150% for plants undergoing two treatments when compared to plants treated only once.

[2] = system: cotton; test: Treatment of tropical cotton with single or multiple applications of 1-MCP, seed cotton yield; type: in vivo; details: 9.6 GAI/HA
Procedure: Four different replicates of treatment of cotton are performed. […] Treatment A designates application of cyclopropene at the stage of Pin Head Square +14 days. Treatment B designates application of cyclopropene at the stage of first flowers. […]

## CC1=CC1 [1-MCP, 1-methylcyclopropene]
[1]; 5 g/ha 1-MCP
  Yield increase in kg/ha, Single app. @ V3-5: 506 kg/ha
  Yield increase in kg/ha, Single app @ V10: 351 kg/ha
  Yield increase in kg/ha, Double app. @ V3&10: 1082 kg/ha
[1]; 5 g/hectare treatment
  yield increase for plants undergoing two treatments compared to plants treated only once: more than 150%
[1]; 10 g/ha 1-MCP
  Yield increase in kg/ha, Single app. @ V3-5: 557 kg/ha
  Yield increase in kg/ha, Single app @ V10: 618 kg/ha
  Yield increase in kg/ha, Double app. @ V3&10: 1580 kg/ha
[1]; 10 g/hectare treatment
  yield increase for plants undergoing two treatments compared to plants treated only once: more than 150%
[1]; 20-25 g/ha 1-MCP
  Yield increase in kg/ha, Single app. @ V3-5: 826 kg/ha
  Yield increase in kg/ha, Single app @ V10: 543 kg/ha
  Yield increase in kg/ha, Double app. @ V3&10: 1539 kg/ha
[1]; 25 g/hectare treatment
  yield increase for plants undergoing two treatments compared to plants treated only once: more than 150%
[2]; average of trials 1-5
  Yield difference between treated plots and untreated checks, Double Applications AB: Floral buds enlarged/Early bloom, average: 713 kg/ha of seed cotton
  Yield difference between treated plots and untreated checks, Double Applications BC: Early bloom/10% of bolls at final size, average: 796 kg/ha of seed cotton
  Yield difference between treated plots and untreated checks, Single Application A: Floral buds distinctly enlarged, average: 577 kg/ha of seed cotton
  Yield difference between treated plots and untreated checks, Single Application B: Early bloom, average: 568 kg/ha of seed cotton
  Yield difference between treated plots and untreated checks, Single Application C: 10% of bolls at final size, average: 512 kg/ha of seed cotton
[2]; individual trials 1-5
  Yield difference between treated plots and untreated checks, Double Applications AB: Floral buds enlarged/Early bloom: 560 kg/ha of seed cotton and 185 kg/ha of seed cotton and 883 kg/ha of seed cotton and 1563 kg/ha of seed cotton and 375 kg/ha of seed cotton
  Yield difference between treated plots and untreated checks, Double Applications BC: Early bloom/10% of bolls at final size: 696 kg/ha of seed cotton and 262 kg/ha of seed cotton and 1042 kg/ha of seed cotton and 1667 kg/ha of seed cotton and 313 kg/ha of seed cotton
  Yield difference between treated plots and untreated checks, Single Application A: Floral buds distinctly enlarged: 571 kg/ha of seed cotton and 167 kg/ha of seed cotton and 767 kg/ha of seed cotton and 1132 kg/ha of seed cotton and 250 kg/ha of seed cotton
  Yield difference between treated plots and untreated checks, Single Application B: Early bloom: 839 kg/ha of seed cotton and 369 kg/ha of seed cotton and 767 kg/ha of seed cotton and 757 kg/ha of seed cotton and 106 kg/ha of seed cotton
  Yield difference between treated plots and untreated checks, Single Application C: 10% of bolls at final size: 780 kg/ha of seed cotton and 280 kg/ha of seed cotton and 792 kg/ha of seed cotton and 715 kg/ha of seed cotton and −6 kg/ha of seed cotton
